Results from patent US9790235B2, “MK2 inhibitors and uses thereof” (Celgene CAR LLC, priority 2014, dated 2017).
Read-outs that look alike come from different tables or passages of the source.

How the values were obtained:
[1] = molecular target: p38α activated, mitogen-activated protein kinase-activated protein kinase 2 (MAPKAP-K2 or MK2) enzyme (Homo sapiens (Human), UniProt P49137); test: MK2 Omnia continuous-read kinase assay for compound potency; assay type: biochemical; conditions: [MK-2]=0.4 nM, [ATP]=10 μM, [ST3-Sox]=10 μM; read-out: MK2 IC50
In short: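 Continuous fluorescence read (λex360/λem485) with 0.4 nM p38α-activated MK2, 10 μM ATP (apparent KM) and 10 μM S/T3-Sox peptide, monitored over 120 min at room temperature. Background-corrected initial slopes gave % inhibition and IC50 with Hill slope; exponential fits gave kobs, yielding apparent kinact/KI.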

[2] = molecular target: T1, MK2 (Homo sapiens (Human), UniProt P49137); test: MK2 cellular assay, total and phospho-Hsp27 (Serine 78) by MSD ELISA (Thp1); assay type: cell-based
In short: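 PMA-differentiated (10 ng/mL, 72 h) Thp-1 cells were pretreated with compound (top 3000 nM) for 1 h at 37 °C, then stimulated with 50 ng/mL LPS for 45 min. Lysate phospho-Hsp27 (Ser78) and total Hsp27 were read by MSD electrochemiluminescence ELISA, and the value is expressed as percent phospho/total signal per well.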

[3] = molecular target: T1, MK2; conditions: percentage of modified protein after 60 minutes at room temperature, 10-fold excess of compound; MALDI (I-1 to I-50), magnetic bead MALDI (I-51 to I-129)
[4] = Thp-1 cells, 1 hour compound, 50 ng/mL LPS 45 minutes, p-HSP27 (Ser78)/total HSP27, read-out: pHSP27 signaling EC50
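For Mass Modification in this document: covalent binding read from centroid mass shift of compound-treated versus untreated intact MK2, shift divided by compound molecular weight, giving fraction of total protein bound.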

T1 sequence (P49137 whole entry): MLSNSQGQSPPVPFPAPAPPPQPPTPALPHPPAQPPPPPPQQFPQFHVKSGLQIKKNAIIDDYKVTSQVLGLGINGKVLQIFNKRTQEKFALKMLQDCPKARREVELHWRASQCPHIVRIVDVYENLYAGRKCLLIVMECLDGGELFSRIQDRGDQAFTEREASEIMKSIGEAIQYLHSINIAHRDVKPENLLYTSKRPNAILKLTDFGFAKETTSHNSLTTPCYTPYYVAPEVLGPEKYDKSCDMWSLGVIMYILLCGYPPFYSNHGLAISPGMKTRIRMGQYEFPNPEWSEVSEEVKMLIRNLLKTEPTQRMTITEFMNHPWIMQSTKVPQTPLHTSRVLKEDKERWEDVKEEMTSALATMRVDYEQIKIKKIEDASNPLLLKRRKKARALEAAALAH
p38α activated, mitogen-activated protein kinase-activated protein kinase 2 (MAPKAP-K2 or MK2) enzyme, sequence (P49137 whole entry): as above

SMILES | IC50 [1] [nM] | EC50 [2] [nM] | Mass Modification [3] | EC50 [2, 4] [nM]
COCCOc1nc(F)cc(Nc2ccc3c(ccc4sc5c(c43)NC[C@@H](C)NC5=O)n2)n1 [I-44, (R)-3-((6-fluoro-2-(2-methoxyethoxy)pyrimidin-4-yl)amino)-10-methyl-9,10,11,12-tetrahydro-8H-[1,4]diazepino[5′,6′:4,5]thieno[3,2-f]quinolin-8-one] | < 100 | 101 to 500 | G (mass modification ≦30%) | –
O=C1N[C@H](CO)CNc2c1sc1ccc3nc(Nc4cc(Cl)ncn4)ccc3c21 [I-22, (S)-3-((6-chloropyrimidin-4-yl)amino)-10-(hydroxymethyl)-9,10,11,12-tetrahydro-8H-[1,4]diazepino[5′,6′:4,5]thieno[3,2-f]quinolin-8-one] | < 100 | – | F (mass modification of 31-69%) | 501 to 999
C[C@@H]1CNc2c(sc3ccc4nc(Nc5cc(F)nc(CN6CCN(C)CC6)n5)ccc4c23)C(=O)N1 [I-73, (R)-3-((6-fluoro-2-((4-methylpiperazin-1-yl)methyl)pyrimidin-4-yl)amino)-10-methyl-9,10,11,12-tetrahydro-8H-[1,4]diazepino[5′,6′:4,5]thieno[3,2-f]quinolin-8-one] | < 100 | – | G (mass modification ≦30%) | > 1000
COC(=O)c1nc(Cl)cc(Oc2ccc3c(ccc4sc5c(c43)NC[C@@H](C)NC5=O)n2)n1 [I-71, (R)-methyl 4-chloro-6-((10-methyl-8-oxo-9,10,11,12-tetrahydro-8H-[1,4]diazepino[5′,6′:4,5]thieno[3,2-f]quinolin-3-yl)oxy)pyrimidine-2-carboxylate] | < 100 | – | E (mass modification of ≧70%) | < 100
NC[C@@H]1CNc2c(sc3ccc4nc(Nc5cc(Cl)ncn5)ccc4c23)C(=O)N1 [I-28, (R)-10-(aminomethyl)-3-((6-chloropyrimidin-4-yl)amino)-9,10,11,12-tetrahydro-8H-[1,4]diazepino[5′,6′:4,5]thieno[3,2-f]quinolin-8-one] | < 100 | – | E (mass modification of ≧70%) | > 1000
C[C@@H]1CNc2c(sc3ccc4nc(Nc5nc(F)cc(OC6COC6)n5)ccc4c23)C(=O)N1 [I-42, (R)-3-((4-fluoro-6-(oxetan-3-yloxy)pyrimidin-2-yl)amino)-10-methyl-9,10,11,12-tetrahydro-8H-[1,4]diazepino[5′,6′:4,5]thieno[3,2-f]quinolin-8-one] | < 100 | 501 to 999 | G (mass modification ≦30%) | –
COCc1nc(Cl)cc(Oc2ccc3c(ccc4sc5c(c43)NC[C@@H](C)NC5=O)n2)n1 [I-57, (R)-3-((6-chloro-2-(methoxymethyl)pyrimidin-4-yl)oxy)-10-methyl-9,10,11,12-tetrahydro-8H-[1,4]diazepino[5′,6′:4,5]thieno[3,2-f]quinolin-8-one] | < 100 | – | E (mass modification of ≧70%) | < 100
C[C@@H]1CNc2c(sc3ccc4nc(Nc5cc(F)ncc5C(N)=O)ccc4c23)C(=O)N1 [I-29, (R)-6-fluoro-4-((10-methyl-8-oxo-9,10,11,12-tetrahydro-8H-[1,4]diazepino[5′,6′:4,5]thieno[3,2-f]quinolin-3-yl)amino)nicotinamide] | < 100 | – | G (mass modification ≦30%) | > 1000
C[C@@H]1CNc2c(sc3ccc4nc(Oc5nc(Cl)ncc5Br)ccc4c23)C(=O)N1 [I-116, (R)-3-((5-bromo-2-chloropyrimidin-4-yl)oxy)-10-methyl-9,10,11,12-tetrahydro-8H-[1,4]diazepino[5′,6′:4,5]thieno[3,2-f]quinolin-8-one] | < 100 | – | E (mass modification of ≧70%) | < 100
